The values below come from patent publication EP1339725B1, “DNA METHYL TRANSFERASE INHIBITORS” (priority 2000, dated 2002).

The IC50 is the concentration that inhibits the measured activity by half.

Test [1] addresses Brucella abortus CcrM (Brucella abortus, UniProt Q2YMK2). Type of test: biochemical.
In test [2] the test system is Bacillus subtilis (ATCC #33234). Briefly: Bacillus subtilis cell growth assay. Type of test: cell-based. The note with it: LB media without antibiotics, 37°C, growth monitored up to 7.5 hours.
Test [3] has as its system Caulobacter crescentus (CB15N). Briefly: Caulobacter crescentus cell growth assay. The test is classed as cell-based. As to conditions: PYE media with 200 µg/mL ampicillin, 30°C, growth monitored at 630 nm up to 22 hours.

Sequence of Brucella abortus CcrM (Q2YMK2 whole entry, looked up): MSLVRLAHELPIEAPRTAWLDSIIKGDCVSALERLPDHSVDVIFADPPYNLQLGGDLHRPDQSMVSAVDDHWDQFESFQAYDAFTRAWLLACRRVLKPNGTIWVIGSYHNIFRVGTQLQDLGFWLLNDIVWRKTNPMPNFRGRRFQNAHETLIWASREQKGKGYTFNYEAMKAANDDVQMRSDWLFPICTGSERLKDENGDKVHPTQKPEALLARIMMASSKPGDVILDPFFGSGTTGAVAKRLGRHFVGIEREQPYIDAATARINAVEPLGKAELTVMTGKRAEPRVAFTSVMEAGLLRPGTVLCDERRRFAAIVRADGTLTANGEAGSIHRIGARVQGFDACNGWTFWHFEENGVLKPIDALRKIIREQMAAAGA

Take `c1cnc2c(OB(c3ccc4c(c3)OCO4)c3ccc4c(c3)OCO4)cccc2c1` [Compound 11vi, Di-(3,4-methylenedioxyphenyl)borinic acid 8-hydroxyquinoline ester]: in test [1], the “% reaction Brucella abortus CcrM Activity” value is 42%. Take `Cc1ccc2cccc(OB(c3ccc(Cl)cc3)c3ccc(Cl)cc3)c2n1` [Compound 12iii, Di-(p-chlorophenyl)borinic acid 8-hydroxyquinaldine ester]: in test [1], the “% reaction Brucella abortus CcrM Activity” value came out at 40%.

On to `Fc1ccc(B(Oc2cccc3cccnc23)c2ccc(F)cc2)cc1` [Compound 11ii, Di-(4-fluorophenyl)borinic acid 8-hydroxyquinoline ester], for which the “% reaction Brucella abortus CcrM Activity” value in test [1] stood at 61%.

On to `O=[N+]([O-])c1ccc(OB(c2ccc3c(c2)OCO3)c2ccc3c(c2)OCO3)c2ncccc12` [Compound 14vi, Di-(3,4-methylenedioxyphenyl)borinic acid 8-hydroxy-5-nitroquinoline ester], for which the “% reaction Brucella abortus CcrM Activity” value in test [1] stood at 21%. Regarding `Clc1ccc(B(Oc2ccc(Cl)c3cccnc23)c2ccc(Cl)cc2)cc1` [Compound 13iii, Di-(p-chlorophenyl)borinic acid 5-chloro-8-hydroxyquinaline ester], the “% reaction Brucella abortus CcrM Activity” value in test [1] came out at 81%.

With `Clc1ccc(B(Oc2cccc3cccnc23)c2ccc(Cl)cc2)cc1` [Compound 11iii, Di-(4-chlorophenyl)borinic acid 8-hydroxyquinoline ester], the “% reaction Brucella abortus CcrM Activity” value in test [1] was 61%.

Regarding `Cc1ccc2cccc(OB(c3ccc(F)cc3)c3ccc(F)cc3)c2n1` [Compound 12ii, Di-(p-fluorophenyl)borinic acid 8-hydroxyquinaldine ester], in test [1], the “% reaction Brucella abortus CcrM Activity” value stood at 17%. With `c1csc(B(Oc2cccc3cccnc23)c2cccs2)c1` [Compound 11viii, Di-(2-thienyl)borinic acid 8-hydroxyquinoline ester], the “% reaction Brucella abortus CcrM Activity” value in test [1] was 74%.

Turning to `NCCOB(c1ccc(F)cc1)c1ccc(F)cc1` [Compound 19ii, Di-(4-fluorophenyl)borinic acid ethanolamine ester], the “% reaction Brucella abortus CcrM Activity” value in test [1] was determined as 8%. The same measure, in the same setting: in the case of `c1ccc(B(OCc2ccccn2)c2ccccc2)cc1` [Compound 16i, Diphenylborinic acid pyridine-2-methanol] it was 93%. Regarding `c1ccc(B(OC[C@@H]2CCCN2)c2ccccc2)cc1` [Compound 18i, Diphenylborinic acid (S)-(+)-pyrrolidine-2-methanol], the “% reaction Brucella abortus CcrM Activity” value in test [1] stood at 81%. Besides, the IC50 in test [2] and in test [3] was above 100 µM throughout.

With “Diphenylborinic acid 2-amino-1-phenylpropanol [Compound 17i]”, the “% reaction Brucella abortus CcrM Activity” value in test [1] is given as 114%. In addition, the IC50 in test [2] and in test [3] was above 100 µM each time.

`Fc1ccc(B(Oc2ccc(Cl)c3cccnc23)c2ccc(F)cc2)cc1` [Compound 13ii, Di-(p-fluorophenyl)borinic acid 5-chloro-8-hydroxyquinaline ester]: the “% reaction Brucella abortus CcrM Activity” value in test [1] was 55%. As to `COc1ccc(B(Oc2cccc3ccc(C)nc23)c2ccc(OC)cc2)cc1` [Compound 12vii, Di-(4-methoxyphenyl)borinic acid 8-hydroxyquinaldine ester], the “% reaction Brucella abortus CcrM Activity” value in test [1] stood at 56%.
